Patent US20040175401A1, “Enhanced parmacokinetic profile of hydrophobic substances” (priority 2001, published 2004)
Like-named read-outs stand apart in the source and are kept apart here.

Columns and labels:
[1] = n-octanol/water partition coefficient LogPoct calculated from solubility data; settings: calculated as logPoct = (0.99 - logSw)/1.34
From the text: where logSw is the molar solubility and logPoct is the water-oil partition coefficient. Using this equation, values for logPoct can be calculated from solubility data.

[2] = molar aqueous solubility, log value; cited from earlier work
[3] = for AUC(0-∞) / Cmax / T1/2 / Tmax: mean, n = 6
Description: Six Yucatan mini-pigs weighing 20-25 kg were used. […] A total of 6 animals were utilized in a full crossover design where each animal received a 1.0 mg dose by all administration routes in an injection volume of 0.1 mL.
The intravenous dose was administered an ear vein catheter. Subcutaneous delivery was through a standard 0.5 inch, 30 gauge needle. Delivery to the dermis was through a three point microneedle array having three 34 gauge needles with 7 mm spacing and 1 mm depth to right flank of the animal between the rib cage and the rear leg. Subcutaneous and intravenous administration was by manual injection seconds. Administration to the dermis was at a rate of 90 μL/min by a syringe pump.
The study design was a full crossover with each animal receiving intravenous, subcutaneous and dermal administration. Each animal received three treatments over a two-week period with a minimal washout period of 2 days between subsequent doses. Dosing was according to the schedule shown below in Table 2.
Blood samples were obtained from the vena cava access port immediately before dosing and at 5, 10, 15, 20, 30, 45, 60 minutes and 2, 3, 4, 6, 8, 10, 14 and 24 hours after administration. Timing was started at the cessation of injection for a given method. The venous samples were collected into EDTA containing Vacutainer tubes, centrifuged at approximately 1000 g for 10 minutes at 4° C. After centrifugation, the plasma layer was transferred to plastic storage vials and stored frozen at −70° C. until assayed.
Assay of the pig plasma samples was performed by HPLC analysis. Results are shown below in Tables 3
Pharmacokinetic parameters were estimated using Watson Drug Metabolism Laboratory Information Management System, version 6.2.0.02 (Innaphase Corp., Philadelphia, Pa.). Parameters determined were the maximal plasma concentration, Cmax, time to maximal plasma concentration Tmax, area under the curve estimated to t=infinity, Tmax and the half-life for decrease in plasma concentration, T1/2.

C=CCC1(C)C(=O)NC(=O)NC1=O [5-Me-5-allylbartituric acid]
LogPoct [1]: 1.60

O=C1NC(=O)C2(CCCCCCCCCCC2)C(=O)N1 [5,5-(CH2)11-barbituric acid]
LogPoct [1]: 5.07 | LogSw [2]: −5.80 moles/L

O=C1NC(=O)C2(CCC2)C(=O)N1 [5,5-(CH2)3-barbituricacid]
LogPoct [1]: 1.98

CC1(c2ccccc2)C(=O)NC(=O)NC1=O [5-Me-5-phenylbarbituric acid]
LogPoct [1]: 2.51 | LogSw [2]: −2.38 moles/L

C=CC(C)(O)CCC=C(C)C (stereo not shown) [linalool]
LogPoct [1]: 2.23 | LogSw [2]: −2.00 moles/L

dimethylthiolethione
LogPoct [1]: 3.29 | LogSw [2]: −3.42 moles/L

CCC1(CC)C(=O)NC(=S)NC1=O [5-diethyl-2-thiobarbituric acid]
LogPoct [1]: 2.36

COc1ccc(-c2cc(=S)ss2)cc1 [Anethole trithione]
LogPoct [1]: 5.07

C=C(C)[C@H]1CC=C(C)CC1 [limonene]
LogSw [2]: −3.41 moles/L

CC(C)=CCC1(C(C)(C)C)C(=O)NC(=O)NC1=O [5-tBu-5-(3-methylbut-2-enyl)-barbituric acid]
LogPoct [1]: 3.39

O=C1NC(=O)C2(CCCC2)C(=O)N1 [5,5-(CH2)4-barbituric acid]
LogPoct [1]: 3.97

O=C1NC(=O)C2(CCCCCCCCCC2)C(=O)N1 [5,5-(CH2)10-barbituric acid]
LogPoct [1]: 4.16 | LogSw [2]: −4.59 moles/L

S=c1cc(-c2ccccc2)ss1 [5-phenyldithiolethione]
LogPoct [1]: 4.95 | LogSw [2]: −5.64 moles/L

CC(=O)Nc1nc2c(ncn2COCCO)c(=O)[nH]1 [N2-acetylacyclovir]
LogPoct [1]: 2.17

S=c1ccss1 [dithiolethione]
LogPoct [1]: 2.59

C=CCC1(CC)C(=O)NC(=O)NC1=O [5-Et-5-allyl-barbituric acid]
LogPoct [1]: 1.64 | LogSw [2]: −1.61 moles/L

CC(C)Nc1cccnc1N1CCN(C(=O)c2cc3cc(NS(C)(=O)=O)ccc3[nH]2)CC1 [delavirdine]
LogPoct [1]: 4.29 | LogSw [2]: −4.76 moles/L

C=CCC1(C(C)C)C(=O)NC(=O)NC1=O [5-iPr-5-allyl-barbituric acid]
LogSw [2]: −1.71 moles/L

C=CC(=C)CCC=C(C)C [Myrcene]
LogPoct [1]: 3.41 | LogSw [2]: −3.58 moles/L

CN[C@@H]1Cc2cccc3[nH]c(=S)n(c23)C1 [(R)-5,6-dihydro-5-(methylamino)-4H-imidazo[4,5-ij]-quinoline-2(1H)-thione]
Plasma Concentration, Mean ([3]; ID (dermis), 1.0 mg dose, 5 min): 24.8 ng/mL | Plasma Concentration, Mean ([3]; ID (dermis), 1.0 mg dose, 10 min): 22.5 ng/mL | Plasma Concentration, Mean ([3]; ID (dermis), 1.0 mg dose, 15 min): 16.4 ng/mL | Plasma Concentration, Mean ([3]; ID (dermis), 1.0 mg dose, 20 min): 18.0 ng/mL | Plasma Concentration, Mean ([3]; ID (dermis), 1.0 mg dose, 30 min): 14.0 ng/mL | Plasma Concentration, Mean ([3]; ID (dermis), 1.0 mg dose, 45 min): 9.9 ng/mL | Plasma Concentration, Mean ([3]; ID (dermis), 1.0 mg dose, 1 hr): 9.0 ng/mL | Plasma Concentration, Mean ([3]; ID (dermis), 1.0 mg dose, 2 hr): 5.7 ng/mL | Plasma Concentration, Mean ([3]; ID (dermis), 1.0 mg dose, 3 hr): 4.2 ng/mL | Plasma Concentration, Mean ([3]; ID (dermis), 1.0 mg dose, 4 hr): 3.6 ng/mL | Plasma Concentration, Mean ([3]; ID (dermis), 1.0 mg dose, 6 hr): 0.4 ng/mL | Plasma Concentration, Mean ([3]; ID (dermis), 1.0 mg dose, 8 hr): 0 ng/mL | Plasma Concentration, Mean ([3]; ID (dermis), 1.0 mg dose, 10 hr): 0 ng/mL | Plasma Concentration, Mean ([3]; ID (dermis), 1.0 mg dose, 14 hr): 0 ng/mL | Plasma Concentration, Mean ([3]; ID (dermis), 1.0 mg dose, 24 hr): 0 ng/mL | AUC(0-∞) ([3]; ID (dermis), 1.0 mg dose): 33.6 ng·h/mL | Cmax ([3]; ID (dermis), 1.0 mg dose): 26.7 ng/mL | T1/2 ([3]; ID (dermis), 1.0 mg dose): 96.6 min | Tmax ([3]; ID (dermis), 1.0 mg dose): 8.34 min | Heterogeneity of Regression analysis of plasma values, dermis versus intravenous administration ([3]; ID versus IV, both different from SC): not different from each other | Cmax values following administration to the dermis compared with subcutaneous administration ([3]; ID versus SC, 1.0 mg dose): consistently greater | Plasma levels of drug after administration into the dermis compared with subcutaneous administration ([3]; ID versus SC, 1.0 mg dose): higher plasma levels | Tmax values following administration to the dermis compared with subcutaneous administration ([3]; ID versus SC, 1.0 mg dose): consistently lesser | Plasma Concentration, Mean ([3]; IV, 1.0 mg dose, 5 min): 29.8 ng/mL | Plasma Concentration, Mean ([3]; IV, 1.0 mg dose, 10 min): 20.5 ng/mL | Plasma Concentration, Mean ([3]; IV, 1.0 mg dose, 15 min): 18.5 ng/mL | Plasma Concentration, Mean ([3]; IV, 1.0 mg dose, 20 min): 15.3 ng/mL | Plasma Concentration, Mean ([3]; IV, 1.0 mg dose, 30 min): 13.1 ng/mL | Plasma Concentration, Mean ([3]; IV, 1.0 mg dose, 45 min): 10.7 ng/mL | Plasma Concentration, Mean ([3]; IV, 1.0 mg dose, 1 hr): 9.1 ng/mL | Plasma Concentration, Mean ([3]; IV, 1.0 mg dose, 2 hr): 6.7 ng/mL | Plasma Concentration, Mean ([3]; IV, 1.0 mg dose, 3 hr): 2.8 ng/mL | Plasma Concentration, Mean ([3]; IV, 1.0 mg dose, 4 hr): 1.6 ng/mL | Plasma Concentration, Mean ([3]; IV, 1.0 mg dose, 6 hr): 2.6 ng/mL | Plasma Concentration, Mean ([3]; IV, 1.0 mg dose, 8 hr): 0 ng/mL | Plasma Concentration, Mean ([3]; IV, 1.0 mg dose, 10 hr): 0 ng/mL | Plasma Concentration, Mean ([3]; IV, 1.0 mg dose, 14 hr): 0 ng/mL | Plasma Concentration, Mean ([3]; IV, 1.0 mg dose, 24 hr): 0 ng/mL | AUC(0-∞) ([3]; IV, 1.0 mg dose): 32.4 ng·h/mL | Cmax ([3]; IV, 1.0 mg dose): 29.8 ng/mL | T1/2 ([3]; IV, 1.0 mg dose): 87 min | Tmax ([3]; IV, 1.0 mg dose): 4.98 min | Plasma Concentration, Mean ([3]; SC, 1.0 mg dose, 5 min): 10.0 ng/mL | Plasma Concentration, Mean ([3]; SC, 1.0 mg dose, 10 min): 15.3 ng/mL | Plasma Concentration, Mean ([3]; SC, 1.0 mg dose, 15 min): 16.0 ng/mL | Plasma Concentration, Mean ([3]; SC, 1.0 mg dose, 20 min): 14.5 ng/mL | Plasma Concentration, Mean ([3]; SC, 1.0 mg dose, 30 min): 14.0 ng/mL | Plasma Concentration, Mean ([3]; SC, 1.0 mg dose, 45 min): 9.9 ng/mL | Plasma Concentration, Mean ([3]; SC, 1.0 mg dose, 1 hr): 8.9 ng/mL | Plasma Concentration, Mean ([3]; SC, 1.0 mg dose, 2 hr): 5.6 ng/mL | Plasma Concentration, Mean ([3]; SC, 1.0 mg dose, 3 hr): 4.1 ng/mL | Plasma Concentration, Mean ([3]; SC, 1.0 mg dose, 4 hr): 2.2 ng/mL | Plasma Concentration, Mean ([3]; SC, 1.0 mg dose, 6 hr): 1.6 ng/mL | Plasma Concentration, Mean ([3]; SC, 1.0 mg dose, 8 hr): 0.6 ng/mL | Plasma Concentration, Mean ([3]; SC, 1.0 mg dose, 10 hr): 0 ng/mL | Plasma Concentration, Mean ([3]; SC, 1.0 mg dose, 14 hr): 0 ng/mL | Plasma Concentration, Mean ([3]; SC, 1.0 mg dose, 24 hr): 0 ng/mL | AUC(0-∞) ([3]; SC, 1.0 mg dose): 32.1 ng·h/mL | Cmax ([3]; SC, 1.0 mg dose): 16.9 ng/mL | T1/2 ([3]; SC, 1.0 mg dose): 90 min | Tmax ([3]; SC, 1.0 mg dose): 13.3 min

O=C1NC(=O)C(c2ccccc2)(c2ccccc2)N1 [5,5-diphenyhlhydantoin]
LogPoct [1]: 3.80 | LogSw [2]: −4.10 moles/L

CCCC(C)C1(CC)C(=O)NC(=S)NC1=O (stereo not shown) [5-Et-5-(1-methylbutyl)-2-thiobarbituric acid]
LogPoct [1]: 3.49 | LogSw [2]: −3.68 moles/L

CC1(C)C2CC3OC3(C)C1C2 (stereo not shown) [pinene_oxide]
LogPoct [1]: 2.67 | LogSw [2]: −2.59 moles/L

O=C1NC(=O)C2(CCCCCCC2)C(=O)N1 [5,5-(CH2)7-barbituric acid]
LogPoct [1]: 2.96

CC(C)C1(C(C)C)C(=O)NC(=O)NC1=O [5,5-di-iPr-barbituric acid]
LogPoct [1]: 2.81

CC12CCC(C1)C(C)(C)C2O (stereo not shown) [fenchyl_alcohol]
LogPoct [1]: 2.43 | LogSw [2]: −2.27 moles/L

CC(C)CN(C[C@@H](O)[C@H](Cc1ccccc1)NC(=O)O[C@H]1CCOC1)S(=O)(=O)c1ccc(N)cc1 [Amprenavir]
LogPoct [1]: 3.72 | LogSw [2]: −4.00 moles/L

CC(=O)/C=C/C1C(C)=CCCC1(C)C (stereo not shown) [a-ionone]
LogSw [2]: −3.06 moles/L

O=C1Nc2ccc(Cl)cc2[C@@](C#CC2CC2)(C(F)(F)F)O1 [Efavirenz]
LogPoct [1]: 4.15 | LogSw [2]: −4.57 moles/L

O=C1NC(=O)C2(CCCCC2)C(=O)N1 [5,5-(CH2)5-barbituric acid]
LogPoct [1]: 3.02

CC(C)(C)NC(=O)[C@@H]1C[C@@H]2CCCC[C@@H]2CN1C[C@@H](O)[C@H](Cc1ccccc1)NC(=O)[C@H](CC(N)=O)NC(=O)c1ccc2ccccc2n1 [Saquinavir]
LogPoct [1]: 3.97 | LogSw [2]: −4.33 moles/L

O=C1NC(=O)C(c2ccccc2)(c2ccccc2)C(=O)N1 [5,5-diphenylbarbituric acid]
LogPoct [1]: 3.87

CCC1(CC=C(C)C)C(=O)NC(=O)NC1=O [5-Et-5-(3-methylbut-2-enyl)-barbituric acid]
LogPoct [1]: 2.42

O=c1[nH]cnc2c1ncn2[C@H]1CC[C@@H](CO)O1 [Didanosine]
LogSw [2]: −0.90 moles/L

CCCCC(=O)OCN1C(=O)NC(c2ccccc2)(c2ccccc2)C1=O [3-pentanoyloxymethyl-5,5-diphenylhydantoin]
LogSw [2]: −4.68 moles/L

O=C1NC(=O)C2(CC2)C(=O)N1 [5,5-(CH2)2-barbituric acid]
LogPoct [1]: 2.15
